Experimental data: US7829587B2, “Substituted 2-aminotetralin derivatives as selective alpha 2B agonist” (Allergan, Inc., priority 2008, dated 2010)

What was measured:
Format in all cases: cell-based
[1] = target: T1, bovine α1A receptor (Bos taurus, UniProt P18130); assay: FLIPR Ca+2 influx assay, α1A; details: for EC50: HEK 293 cells stably expressing bovine α1A receptor; for Relative efficacy FLIPR α1A: relative efficacy compared to standard full agonist norepinephrine, HEK 293, bovine α1A
T1 construct: expressed in transfected cells; host or cells: HEK 293
T1 sequence (P18130 1-466): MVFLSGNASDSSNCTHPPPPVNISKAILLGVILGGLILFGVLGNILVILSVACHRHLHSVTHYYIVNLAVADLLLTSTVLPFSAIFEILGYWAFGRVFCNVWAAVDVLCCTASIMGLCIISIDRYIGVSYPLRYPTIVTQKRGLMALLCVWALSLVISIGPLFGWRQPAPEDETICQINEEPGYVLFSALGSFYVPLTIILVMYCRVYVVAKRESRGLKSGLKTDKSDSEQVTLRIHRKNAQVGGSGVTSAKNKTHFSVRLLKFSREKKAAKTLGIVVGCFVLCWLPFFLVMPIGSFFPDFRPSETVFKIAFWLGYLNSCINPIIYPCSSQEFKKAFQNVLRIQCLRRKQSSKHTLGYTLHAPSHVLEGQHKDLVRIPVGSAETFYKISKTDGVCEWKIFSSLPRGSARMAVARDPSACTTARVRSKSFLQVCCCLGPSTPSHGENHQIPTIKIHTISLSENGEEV
Method: (§1) The compounds disclosed herein are agonists of alpha 2B/2C adrenergic receptors. […] This assay is adequate for monitoring the intracellular Ca^2+ mobilization from fluorescent reading to evaluate receptor agonists.
(§2) FLIPR Ca+2 Influx Assay: HEK 293 cells stably expressing the bovine α1A receptor, the rat α1B receptor, the human α2A receptor and the chimeric G protein Gqi5, the human α2C receptor and the chimeric G protein Gqi5 and the mouse α2B receptor and the Gα16 protein were plated in poly-D-lysine coated 384 well plates at 15,000-25,000 cells per well and grown overnight in DMEM supplemented with 10% fetal bovine serum. For FLIPR (fluorometric image plate reader) evaluation, cells were washed 2-4 times with HBSS/HEPES Buffer (1× Hanks Buffered Salt Solution, 20 mM HEPES<pH 7.4) prior to the addition of Fluo-4-AM (4 uM Fluo-4-AM, 0.04% pluronic acid in HBSS/HEPES Buffer), a calcium-sensitive dye. Cells were loaded with Dye for 40 minutes at 30° C., then washed 4-8 times with HBSS/HEPES Buffer to remove excess dye. Cells were preincubated at 37° C. for 3 minutes prior to placement into the FLIPR instrument. The reaction was carried out at 37° C. and was initiated by the addition of the appropriate dilutions of compounds. The transient calcium was captured and the peak height of the calcium curve determined and utilized for calculation of EC50 and efficacy using ActivityBase. Data is stored in the ActivityBase database under the unique identifier “Test Occasion”, which reflects the results of an assay run on a particular date and the individual responsible for the assay. Norepinephrine was the standard full agonist for evaluating alpha1 and alpha2 receptor activity.

[2] = target: T2, human α2A receptor (Homo sapiens, UniProt P08913); assay: FLIPR Ca+2 influx assay, α2A; details: for EC50: HEK 293 cells stably expressing human α2A receptor and chimeric G protein Gqi5; for Relative efficacy FLIPR α2A: relative efficacy compared to standard full agonist norepinephrine, HEK 293, human α2A/Gqi5
T2 construct: expressed in transfected cells; host or cells: HEK 293
T2 sequence (P08913 1-465): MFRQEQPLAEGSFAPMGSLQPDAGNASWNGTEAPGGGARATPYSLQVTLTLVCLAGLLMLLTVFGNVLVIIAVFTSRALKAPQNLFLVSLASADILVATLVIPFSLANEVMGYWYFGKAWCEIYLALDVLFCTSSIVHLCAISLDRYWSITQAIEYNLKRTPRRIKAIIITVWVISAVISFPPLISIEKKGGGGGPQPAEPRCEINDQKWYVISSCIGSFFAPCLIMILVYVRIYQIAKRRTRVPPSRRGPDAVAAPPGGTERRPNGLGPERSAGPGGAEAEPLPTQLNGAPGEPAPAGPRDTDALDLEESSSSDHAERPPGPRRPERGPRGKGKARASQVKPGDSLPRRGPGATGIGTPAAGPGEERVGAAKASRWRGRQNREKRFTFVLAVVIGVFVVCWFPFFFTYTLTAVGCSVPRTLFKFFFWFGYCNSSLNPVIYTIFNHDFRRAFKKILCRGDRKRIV
Method: as §1, §2

[3] = target: T3, human α2C receptor (Homo sapiens, UniProt P18825); assay: FLIPR Ca+2 influx assay, α2C; details: for EC50: HEK 293 cells stably expressing human α2C receptor and chimeric G protein Gqi5; for Relative efficacy FLIPR α2C: relative efficacy compared to standard full agonist norepinephrine, HEK 293, human α2C/Gqi5
T3 construct: expressed in transfected cells; host or cells: HEK 293
T3 sequence (P18825 1-462): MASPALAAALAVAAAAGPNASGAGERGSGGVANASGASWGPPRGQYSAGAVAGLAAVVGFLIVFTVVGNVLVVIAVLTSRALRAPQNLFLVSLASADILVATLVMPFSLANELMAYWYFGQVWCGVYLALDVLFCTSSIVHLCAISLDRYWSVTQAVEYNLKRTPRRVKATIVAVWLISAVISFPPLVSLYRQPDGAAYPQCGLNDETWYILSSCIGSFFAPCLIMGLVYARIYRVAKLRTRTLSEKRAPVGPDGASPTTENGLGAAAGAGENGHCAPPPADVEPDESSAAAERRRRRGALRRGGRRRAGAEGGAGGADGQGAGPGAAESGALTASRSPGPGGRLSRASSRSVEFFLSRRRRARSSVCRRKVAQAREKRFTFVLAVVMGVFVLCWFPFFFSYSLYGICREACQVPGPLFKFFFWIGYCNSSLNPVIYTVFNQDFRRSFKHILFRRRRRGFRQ
Method: as §1, §2

[4] = target: T4, rat α1B receptor (Rattus norvegicus, UniProt P15823); assay: FLIPR Ca+2 influx assay, α1B; details: for EC50: HEK 293 cells stably expressing rat α1B receptor; for Relative efficacy FLIPR α1B: relative efficacy compared to standard full agonist norepinephrine, HEK 293, rat α1B
T4 construct: expressed in transfected cells; host or cells: HEK 293
T4 sequence (P15823 1-515): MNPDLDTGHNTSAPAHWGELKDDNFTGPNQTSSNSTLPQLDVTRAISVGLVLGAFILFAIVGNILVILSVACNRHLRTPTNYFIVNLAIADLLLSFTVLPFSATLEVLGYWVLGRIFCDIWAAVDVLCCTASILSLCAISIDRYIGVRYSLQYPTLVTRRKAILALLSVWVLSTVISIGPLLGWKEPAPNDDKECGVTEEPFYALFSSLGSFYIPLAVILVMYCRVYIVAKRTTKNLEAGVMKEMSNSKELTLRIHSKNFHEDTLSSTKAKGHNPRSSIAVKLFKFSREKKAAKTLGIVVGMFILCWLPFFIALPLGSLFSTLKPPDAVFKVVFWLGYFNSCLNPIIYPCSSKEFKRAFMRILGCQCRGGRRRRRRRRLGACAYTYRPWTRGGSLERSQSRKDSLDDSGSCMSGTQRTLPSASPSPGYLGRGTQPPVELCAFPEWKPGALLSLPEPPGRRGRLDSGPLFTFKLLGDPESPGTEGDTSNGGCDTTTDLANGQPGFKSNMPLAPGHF
Method: as §1, §2

[5] = target: T5, mouse α2B receptor (Mus musculus, UniProt P30545); assay: FLIPR Ca+2 influx assay, α2B; details: for Relative efficacy FLIPR α2B: relative efficacy compared to standard full agonist norepinephrine, HEK 293, mouse α2B/Gα16
T5 construct: expressed in transfected cells; host or cells: HEK 293
T5 sequence (P30545 1-453): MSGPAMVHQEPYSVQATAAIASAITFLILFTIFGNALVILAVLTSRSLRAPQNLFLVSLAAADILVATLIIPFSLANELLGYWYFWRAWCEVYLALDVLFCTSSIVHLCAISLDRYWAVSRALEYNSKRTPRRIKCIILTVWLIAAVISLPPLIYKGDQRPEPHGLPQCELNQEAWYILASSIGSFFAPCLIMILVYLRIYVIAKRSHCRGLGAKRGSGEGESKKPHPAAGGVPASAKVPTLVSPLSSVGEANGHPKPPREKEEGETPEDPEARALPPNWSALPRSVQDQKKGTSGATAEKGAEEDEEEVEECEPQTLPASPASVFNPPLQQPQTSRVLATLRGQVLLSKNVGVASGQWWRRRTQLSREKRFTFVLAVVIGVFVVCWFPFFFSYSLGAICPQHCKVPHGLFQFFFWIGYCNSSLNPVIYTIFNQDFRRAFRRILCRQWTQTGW
Method: as §1, §2

[6] = HEK 293 cells stably expressing mouse α2B receptor and Gα16 protein

Row | SMILES | EC50 [1] [nM] | Relative efficacy FLIPR α1A [1] | EC50 [2] [nM] | Relative efficacy FLIPR α2A [2] | EC50 [3] [nM] | Relative efficacy FLIPR α2C [3] | EC50 [4] [nM] | Relative efficacy FLIPR α1B [4] | EC50 [5, 6] [nM] | Relative efficacy FLIPR α2B [5] | EC50 FLIPR α2B [5, 6]
1 | CCCN(Cc1ccncc1)[C@@H]1CCc2cccc(O)c2C1 | > 10000 | 0 | > 10000 | 0 | > 10000 | 0 | > 10000 | 0 | 4 | 0.8 | –
2 | CCN(Cc1ccncc1)C1CCc2cccc(OC)c2C1 (centres unmarked) | > 10000 | 0 | 203 | 0.74 | 253 | 0.72 | > 10000 | 0 | 78 | 0.91 | –
3 | CCN(Cc1cccnc1)C1CCc2cccc(O)c2C1 (centres unmarked) | 4000 | 0.29 | 4500 | 0.35 | – | ND (0.43) | – | ND (0.36) | 873 | 0.89 | –
4 | CCCN(Cc1ccncc1)C1CCc2cccc(OC)c2C1 (centres unmarked) | > 10000 | 0 | 1850 | 0.22 | 2150 | 0.69 | > 10000 | 0 | 36 | 1.0 | –
5 | CCN(Cc1cccnc1)C1CCc2cccc(OC)c2C1 (centres unmarked) | > 10000 | 0 | 442 | 0.51 | 652 | 0.52 | > 10000 | 0 | 614 | 0.26 | –
6 | CCCN(Cc1ccncc1)C1CCc2cccc(O)c2C1 (centres unmarked) | > 10000 | 0 | > 10000 | 0 | – | ND (0.12) | > 10000 | 0 | 58 | 1.06 | –
7 | CCCN(Cc1ccncc1)[C@@H]1CCc2cccc(OC)c2C1 | > 10000 | 0 | 424 | 0.34 | 557 | 0.67 | > 10000 | 0 | – | 1.02 | potent
8 | CCCN(Cc1ccccn1)C1CCc2cccc(O)c2C1 (centres unmarked) [drawing 21] | – | ND (0.05) | > 10000 | 0 | > 10000 | 0 | > 10000 | 0 | 33 | 0.95 | –
9 | CCCN(Cc1ccccn1)C1CCc2cccc(O)c2C1 (centres unmarked) [drawing 20] | > 10000 | 0 | > 10000 | 0 | > 10000 | 0 | > 10000 | 0 | 568 | 0.69 | –
10 | CCN(Cc1ccccn1)C1CCc2cccc(OC)c2C1 (centres unmarked) | > 10000 | 0 | > 10000 | 0 | > 10000 | 0 | > 10000 | 0 | 647 | 0.14 | –
11 | CCCN(Cc1ccccn1)C1CCc2cccc(OC)c2C1 (centres unmarked) | > 10000 | 0 | > 10000 | 0 | > 10000 | 0 | > 10000 | 0 | 363 | 0.63 | –
12 | CCCN(Cc1cccnc1)C1CCc2cccc(OC)c2C1 (centres unmarked) | > 10000 | 0 | > 1000 | 0 | – | ND (0.13) | > 10000 | 0 | 820 | 0.47 | –
13 | CCN(Cc1ccccn1)C1CCc2cccc(O)c2C1 (centres unmarked) | > 10000 | 0 | > 10000 | 0 | > 10000 | 0 | > 10000 | 0 | 733 | 0.28 | –
